Experiment: Treatment-emergent adverse events (TEAEs), TRESR
Assay type: in vivo, human
Protocol: Tolerability and safety of camonsertib was evaluated by assessment of AEs, TEAEs, serious adverse events (SAEs), DLTs, concomitant medications and procedures, physical examinations, vital sign measurements, clinical safety laboratory evaluations (hematology, chemistry and urinalysis), ECOG performance status scores and electrocardiograms.
All safety and efficacy endpoints were summarized with descriptive statistics. Safety data were summarized using the safety population, which consisted of all patients who received at least one dose of RP-3500. The DLT rate was based on the DLT-evaluable population, which included those patients in dose-escalation cohorts (M1a and M1b only) receiving ≥80% of planned doses of camonsertib, who completed all required safety evaluations and were observed through the end of cycle 1 or patients who experienced a DLT. Due to the different number of dose levels expected and the exploratory nature of the phase 1 study, anti-tumor activity parameters were primarily based on patients who received ≥1 dose of RP-3500 and had ≥1 post-baseline tumor assessment by RECIST 1.1 and/or GCIG CA-125 or PCWG3 PSA criteria, with an initial dose level of >100 mg d^−1 (dose level predicted to achieve efficacious exposure), as defined in the statistical analysis plan. Additional subgroups based on tumor types or genotypes of interest were based on this efficacy analysis set. […] Patients were, therefore, enrolled in the study and endpoints assessed regardless of sex, gender and race. No formal statistical tests were performed in this study. However, nominal P values (two-sided) were provided for the hypothesis-generating purpose of selected exploratory endpoints, without adjusting for multiplicity. A log-rank test was used in between-group comparisons for the time-to-event endpoints (PFS and DOT), and Fisher’s exact test was used in between-group comparisons for the binary endpoints (CBR, MR, etc.).

[1] = 3/4 schedule (n = 95), all grades
[2] = 3/4 schedule (n = 95), grade 3+
[3] = 5/2 schedule (n = 25), all grades
[4] = 5/2 schedule (n = 25), grade 3+

SMILES: C[C@@H]1COCCN1c1cc([C@]2(O)C[C@H]3CC[C@@H](C2)O3)c2cnn(-c3cc[nH]n3)c2n1 [camonsertib]
- Any TEAE [1]: 92 (96.8) n (%)
- TEAE: Abdominal pain [1]: 15 (15.8) n (%)
- TEAE: Anemia [1]: 63 (66.3) n (%)
- TEAE: Blood creatinine increased [1]: 8 (8.4) n (%)
- TEAE: Constipation [1]: 13 (13.7) n (%)
- TEAE: Decreased appetite [1]: 21 (22.1) n (%)
- TEAE: Diarrhea [1]: 20 (21.1) n (%)
- TEAE: Dizziness [1]: 11 (11.6) n (%)
- TEAE: Dyspnea [1]: 18 (18.9) n (%)
- TEAE: Fatigue [1]: 34 (35.8) n (%)
- TEAE: Nausea [1]: 31 (32.6) n (%)
- TEAE: Neutrophil count decreased/neutropenia [1]: 27 (28.4) n (%)
- TEAE: Platelet count decreased/ thrombocytopenia [1]: 25 (26.3) n (%)
- TEAE: Vomiting [1]: 16 (16.8) n (%)
- TEAE: White blood cell count decreased [1]: 11 (11.6) n (%)
- Any TEAE [2]: 51 (53.7) n (%)
- TEAE: Abdominal pain [2]: 0 n (%)
- TEAE: Anemia [2]: 28 (29.5) n (%)
- TEAE: Blood creatinine increased [2]: 0 n (%)
- TEAE: Constipation [2]: 0 n (%)
- TEAE: Decreased appetite [2]: 0 n (%)
- TEAE: Diarrhea [2]: 0 n (%)
- TEAE: Dizziness [2]: 0 n (%)
- TEAE: Dyspnea [2]: 2 (2.1) n (%)
- TEAE: Fatigue [2]: 2 (2.1) n (%)
- TEAE: Nausea [2]: 3 (3.2) n (%)
- TEAE: Neutrophil count decreased/neutropenia [2]: 13 (13.7) n (%)
- TEAE: Platelet count decreased/ thrombocytopenia [2]: 8 (8.4) n (%)
- TEAE: Vomiting [2]: 3 (3.2) n (%)
- TEAE: White blood cell count decreased [2]: 4 (4.2) n (%)
- Any TEAE [3]: 25 (100.0) n (%)
- TEAE: Abdominal pain [3]: 3 (12.0) n (%)
- TEAE: Anemia [3]: 21 (84.0) n (%)
- TEAE: Blood creatinine increased [3]: 4 (16.0) n (%)
- TEAE: Constipation [3]: 5 (20.0) n (%)
- TEAE: Decreased appetite [3]: 6 (24.0) n (%)
- TEAE: Diarrhea [3]: 3 (12.0) n (%)
- TEAE: Dizziness [3]: 2 (8.0) n (%)
- TEAE: Dyspnea [3]: 8 (32.0) n (%)
- TEAE: Fatigue [3]: 10 (40.0) n (%)
- TEAE: Nausea [3]: 8 (32.0) n (%)
- TEAE: Neutrophil count decreased/neutropenia [3]: 6 (24.0) n (%)
- TEAE: Platelet count decreased/ thrombocytopenia [3]: 8 (32.0) n (%)
- TEAE: Vomiting [3]: 4 (16.0) n (%)
- TEAE: White blood cell count decreased [3]: 3 (12.0) n (%)
- Any TEAE [4]: 19 (76.0) n (%)
- TEAE: Abdominal pain [4]: 0 n (%)
- TEAE: Anemia [4]: 14 (56.0) n (%)
- TEAE: Blood creatinine increased [4]: 0 n (%)
- TEAE: Constipation [4]: 0 n (%)
- TEAE: Decreased appetite [4]: 0 n (%)
- TEAE: Diarrhea [4]: 0 n (%)
- TEAE: Dizziness [4]: 0 n (%)
- TEAE: Dyspnea [4]: 0 n (%)
- TEAE: Fatigue [4]: 1 (4.0) n (%)
- TEAE: Nausea [4]: 0 n (%)
- TEAE: Neutrophil count decreased/neutropenia [4]: 4 (16.0) n (%)
- TEAE: Platelet count decreased/ thrombocytopenia [4]: 3 (12.0) n (%)
- TEAE: Vomiting [4]: 0 n (%)
- TEAE: White blood cell count decreased [4]: 0 n (%)

— PMC10287555, “Camonsertib in DNA damage response-deficient advanced solid tumors: phase 1 trial results” (Nature Medicine, 2023)
